Results taken from patent US20040034045A1, “Inhibitors of thrombin induced platelet aggregation” (Parker Hughes Institute, priority 2000, published 2004).

Assays:
[1] = test system: thrombin-induced platelet aggregation; experiment: Thrombin-induced platelet aggregation (platelet aggregometer); type: cell-based, human
Protocol: Platelet-rich plasma (PRP) was purchased from the Memorial Blood Bank (Minneapolis, Minn.) and used according to the guidelines of the Parker Hughes Institute Human Subjects Committee. The PRP samples were treated with varying concentrations of WHI-P131 for 20 minutes at 37° C. Control PRP samples were treated with vehicle alone. The treated PRP samples were diluted 1:4 with sterile normal saline and platelets were stimulated with thrombin (0.1 U/mL, Chronolog Inc., Philadelphia, Pa.) under stirred conditions. Platelet aggregation was monitored in a platelet aggregometer (Model 560 Dual Chamber Instrument, Chronolog Inc., Philadelphia, Pa.) for 5 minutes. The IC50 values for WHI-P131-mediated inhibition of agonist-induced platelet aggregation were calculated by non-linear regression analysis using Graphpad Prism software version 2.0 (Graphpad Software, Inc., San Diego, Calif.).

[2] = test system: collagen-induced platelet aggregation; experiment: Collagen-induced platelet aggregation; type: cell-based, human; settings: FIG. 7D
platelets = experiment: Serotonin release from thrombin-stimulated platelets; type: cell-based, human; settings: treated, N=4
Protocol: Release of serotonin from thrombin (0.1 U/mL)-stimulated platelets was measured using a serotonin detection kit (Immunotech, Marseille, France) according to the manufacturer's specifications. Sonnicated platelets were used for measurement of the total serotonin content of platelets.

mice [3] = experiment: Tail bleeding time in mice; type: in vivo
Protocol: Mice (4-6 week old males, International Cancer Research (IRC)) were treated intravenously with 200 μL vehicle (PBS supplemented with 10% DMSO) or varying doses of WHI-P131 in […] vehicle. To evalulate bleeding and clotting times, treated mice were placed in a tube holder and tail bleeding was performed with a 2 mm cut from the protruding tail tip; the tail was placed vertically into 10 mL normal saline in a 37° C. water bath and bleeding times determined as previously described (Teng, et.al., 1997 Eur J Pharmacol 320(2-3), 161-6).

[4] = test system: thromboplastin-induced thromboembolism; experiment: Thromboplastin-induced thromboembolism model; type: in vivo
Protocol: Mice (4-6 week old males, International Cancer Research (IRC)) were treated […] with 200 μL of vehicle (PBS supplemented with 10% DMSO), varying doses of WH-P131 in 200 μL of vehicle (administered intraperitoneally (i.p.) 30 minutes prior to the thromboplastin challenge). The mice were challenged with 25 mg/kg thromboplastin (Sigma, St. Louis, Mo.) via a bolus intravenous injection into the tail vein as previously described (Sato, et.al., 1998 Jpn J. Pharmacol 78(2), 191-7).
At the time of thromboembolism-related death after the thromboplastin injection or elective sacrifice at 48 hours using ketamine/xylazine, all mice were perfused with PBS followed by 4% phosphate buffered formalin. PBS and formalin were pumped through the left ventricle of the heart and allowed to exit through a 3 mm incision through the anterior wall of the right ventricle. During necropsy, several selected tissues (brain, heart, liver, lungs) were harvested, fixed in 10% neutral buffered formalin, dehydrated, and embedded in paraffin by routine methods for histopathologic examination. Glass slides with affixed 6 micron tissue sections were prepared and stained with hemotoxylin and eosin (H&E) or Masson's trichrome.

mice [5] = experiment: Systemic toxicity in mice; type: in vivo
monkeys = experiment: Systemic toxicity in monkeys; type: in vivo; settings: dose levels 1 mg/kg to 100 mg/kg
[6] = Plasma concentration in mice; type: in vivo
JAK3 = target: T1, JAK3 (Homo sapiens, UniProt P52333); experiment: JAK3 inhibition (statement, no method)
T1 sequence (P52333 1-1124): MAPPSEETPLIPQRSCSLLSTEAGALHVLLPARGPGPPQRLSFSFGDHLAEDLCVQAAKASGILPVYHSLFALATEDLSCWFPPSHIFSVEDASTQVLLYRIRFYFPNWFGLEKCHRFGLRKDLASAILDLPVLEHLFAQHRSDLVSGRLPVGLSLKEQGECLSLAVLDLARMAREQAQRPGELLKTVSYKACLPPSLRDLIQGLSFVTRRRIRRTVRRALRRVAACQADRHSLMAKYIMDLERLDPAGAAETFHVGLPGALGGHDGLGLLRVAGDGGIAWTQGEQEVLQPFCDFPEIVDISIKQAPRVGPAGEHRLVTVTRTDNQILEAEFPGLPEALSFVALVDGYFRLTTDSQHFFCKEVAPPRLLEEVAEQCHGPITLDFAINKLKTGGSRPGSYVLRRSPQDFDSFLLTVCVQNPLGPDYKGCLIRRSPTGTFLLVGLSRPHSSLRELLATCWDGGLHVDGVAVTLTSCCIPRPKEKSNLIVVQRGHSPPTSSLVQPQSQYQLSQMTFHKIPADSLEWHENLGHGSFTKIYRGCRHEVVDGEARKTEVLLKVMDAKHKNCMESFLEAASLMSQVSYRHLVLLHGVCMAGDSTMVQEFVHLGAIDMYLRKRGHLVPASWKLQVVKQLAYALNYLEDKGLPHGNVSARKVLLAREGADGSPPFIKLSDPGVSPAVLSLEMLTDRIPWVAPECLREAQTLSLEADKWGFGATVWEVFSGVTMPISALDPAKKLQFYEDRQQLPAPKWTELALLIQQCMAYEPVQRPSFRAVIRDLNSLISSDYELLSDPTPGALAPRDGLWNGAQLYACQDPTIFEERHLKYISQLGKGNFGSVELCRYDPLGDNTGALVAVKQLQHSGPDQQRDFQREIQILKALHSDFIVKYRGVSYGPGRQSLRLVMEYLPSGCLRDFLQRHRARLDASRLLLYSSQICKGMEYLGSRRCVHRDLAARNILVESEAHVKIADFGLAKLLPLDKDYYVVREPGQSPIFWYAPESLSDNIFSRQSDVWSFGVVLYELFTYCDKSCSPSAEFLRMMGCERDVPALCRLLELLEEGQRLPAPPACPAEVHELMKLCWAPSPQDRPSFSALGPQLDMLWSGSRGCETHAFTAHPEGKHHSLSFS

| JAK3 inhibition (JAK3) | SMILES | IC50 ([1]; Platelet, human platelets, pretreatment 30 minutes, thrombin 0.1 U/mL, average, read-out: IC50, inhibition of thrombin-induced platelet aggregation) [µM] | effect on collagen-induced platelet aggregation [2] | serotonin in platelet supernatants (platelets) [nM] | average tail bleeding time (mice [3]; 20 mg/kg, N=5) [min] | average tail bleeding time (mice [3]; 40 mg/kg, N=10) [min] | average tail bleeding time (mice [3]; 80 mg/kg, N=10) [min] | event-free survival outcome ([4]; mice, 25 mg/kg thromboplastin challenge) [%] | drug-related toxic lesions in organs (histopathology) ([4]; pretreated, thromboplastin-challenged mice) | survival and health status without thromboplastin challenge (mice [5]; 20 control mice, 80 mg/kg, 48 hour observation) | toxicity on systemic administration (mice [5]; mice, dose levels 1 mg/kg to 100 mg/kg) | toxicity on systemic administration (monkeys) | plasma concentrations achieved without toxicity [6] [µM] | effect on thrombin-induced aggregation of platelets ([1]; even at 100 μM) | effect on thrombin induced platelet aggregation (aggregation curves) ([1]; thrombin 0.1 U/mL, FIG. 7B/7C) |
| --- | --- | --- | --- | --- | --- | --- | --- | --- | --- | --- | --- | --- | --- | --- | --- |
| – | COc1cc2ncnc(Nc3ccc(O)cc3)c2cc1OC [WHI-P131, 4-(4′-Hydroxyphenyl)-amino-6,7-dimethoxyquinazoline] | 1.5 | does not inhibit | 313 ± 19 | 9.4 ± 0.6 | > 10 | > 10 | 30±15 | No drug-related toxic lesions were detected | survived beyond the 48 hour observation period without any evidence of impaired health status or bleeding | not toxic | not toxic | ≥ 10 | – | – |
| does not inhibit | COc1cc2ncnc(Nc3ccccc3)c2cc1OC [WHI-P258] | – | – | – | – | – | – | – | – | – | – | – | – | did not affect | had no effect |
